Experimental data taken from patent US7901893B2, “NPC1L1 (NPC3) and methods of identifying ligands thereof” (Merck Sharp & Dohme Corp., priority 2004, dated 2011).

How the values were obtained:
[1] = molecular target: T1, rat brush border membrane vesicles (Rattus norvegicus, UniProt Q6T3U3); experiment: Binding assay with rat brush border membrane vesicles
T1 construct: from tissue; host or cells: rat (male Sprague-Dawley) small-intestinal mucosa, brush border membrane vesicles
Text: Glass fiber filters (GF/C) were obtained from Whatman.
Rate constants for binding and dissociation.
(§1) Analog structures are defined in Table 12.

[2] = molecular target: T2, rhesus brush border membrane vesicles (Macaca mulatta, UniProt A0MJA5); experiment: Binding assay with rhesus brush border membrane vesicles
T2 sequence (A0MJA5 1-1332): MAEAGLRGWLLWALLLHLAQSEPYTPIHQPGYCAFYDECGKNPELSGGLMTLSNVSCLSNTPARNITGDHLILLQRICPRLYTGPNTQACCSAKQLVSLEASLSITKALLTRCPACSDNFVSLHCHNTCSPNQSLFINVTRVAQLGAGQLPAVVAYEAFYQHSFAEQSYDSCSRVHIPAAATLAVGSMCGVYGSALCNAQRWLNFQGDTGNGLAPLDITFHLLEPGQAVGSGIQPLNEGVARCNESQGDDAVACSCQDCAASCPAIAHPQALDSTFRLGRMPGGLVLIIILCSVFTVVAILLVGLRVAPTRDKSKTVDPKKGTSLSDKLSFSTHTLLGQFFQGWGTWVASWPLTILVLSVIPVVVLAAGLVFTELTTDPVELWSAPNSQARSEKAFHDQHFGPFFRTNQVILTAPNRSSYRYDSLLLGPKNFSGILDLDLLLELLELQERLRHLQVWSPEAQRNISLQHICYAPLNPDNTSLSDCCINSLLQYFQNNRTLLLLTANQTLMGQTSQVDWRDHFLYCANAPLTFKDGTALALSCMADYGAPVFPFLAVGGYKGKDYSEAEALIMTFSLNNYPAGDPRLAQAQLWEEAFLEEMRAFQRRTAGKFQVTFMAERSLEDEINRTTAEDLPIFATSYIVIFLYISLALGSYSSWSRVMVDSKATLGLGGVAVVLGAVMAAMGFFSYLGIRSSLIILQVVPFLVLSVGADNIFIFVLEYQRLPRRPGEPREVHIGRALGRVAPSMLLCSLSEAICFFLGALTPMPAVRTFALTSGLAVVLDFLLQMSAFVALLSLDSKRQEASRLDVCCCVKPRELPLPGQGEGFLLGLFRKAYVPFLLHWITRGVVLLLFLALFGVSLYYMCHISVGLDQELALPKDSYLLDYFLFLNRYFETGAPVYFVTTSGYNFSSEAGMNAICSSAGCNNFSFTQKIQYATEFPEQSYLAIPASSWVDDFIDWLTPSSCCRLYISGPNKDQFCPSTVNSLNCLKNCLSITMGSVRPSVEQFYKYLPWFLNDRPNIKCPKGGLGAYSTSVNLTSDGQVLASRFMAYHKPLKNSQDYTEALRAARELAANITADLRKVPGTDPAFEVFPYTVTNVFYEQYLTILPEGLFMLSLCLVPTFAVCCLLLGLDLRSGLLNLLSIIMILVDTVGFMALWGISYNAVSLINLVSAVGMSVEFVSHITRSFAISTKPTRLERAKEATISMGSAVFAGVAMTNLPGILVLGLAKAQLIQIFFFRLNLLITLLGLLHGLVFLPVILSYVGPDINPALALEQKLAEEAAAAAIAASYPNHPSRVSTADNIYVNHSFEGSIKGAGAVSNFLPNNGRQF
Method: The intestines from freshly sacrificed animals were cut into segments, perfused with ice-cold saline buffer (Buffer A: 26 mM NaHCO3, 0.96 mM NaH2PO4, 5 mM HEPES, 5.5 mM glucose, 117 mM NaCl, 5.4 mM KCl, pH=7.4), placed on cold glass plates, opened longitudinally, and the mucosa scraped with glass microscope slips. This mucosa could be used fresh or frozen with identical results. To prepare the membranes, the mucosal scrapings were resuspended in 20 volumes of cold buffer consisting of 300 mM D-mannitol, 5 mM EGTA, 12 mM Tris, pH 7.4 with HCl, and containing 0.1 mM PMSF and a 1% dilution of a protease inhibitor cocktail (set 1, Calbiochem). They were homogenized using a Polytron at medium speed on ice until inspection with a microscope indicated complete cell lysis. Then, solid MgCl2 was added slowly with stirring to a final concentration of 10 mM, and the solution was kept stirring on ice for 15 min. Cellular debris was removed by centrifugation for 15 min at 3,000 g, and the membranes were recovered by centrifugation for 60 min at 48,000 g. The membranes were further rinsed by re-suspension in a buffer containing 50 mM D-mannitol, 5 mM EGTA, and 2 mM Tris at pH 7.40, and centrifugation for 60 min at 48,000 g. The final pellet was resuspended in 120 mM NaCl and 20 mM Tris at pH 7.40 to a concentration of ˜10-20 mg protein/ml, aliquoted, frozen in liquid nitrogen, and stored at −80 C. The activity was stable indefinitely and could be freeze-thawed with minimal loss of activity.
Binding assay. Assays were conducted in 12×75 mm glass test tubes and total volume 20-100 ul. In general, frozen membranes were diluted in buffer A or buffer A containing 0.03% taurocholate and 0.05% digitonin to a final concentration of 0.02 to 5 mg/ml. […] Competing ligands were likewise added as DMSO solutions to give a total 2-10% organic solvent content. […] At least 2 components of buffer A, the bicarbonate and phosphate salts, were later found to be inconsequential and were routinely omitted.
Bound ligand was quantified by single-tube vacuum filtration using GF/C glass fiber filters. […] Filtration was accomplished by adding 2.5 ml of ice cold buffer (120 mM NaCl, 0.1% sodium cholate, and 20 mM MES at pH 6.70) to the assay tube, pouring the mixture through the filter, and then rinsing the tube and filter twice more with another 2×2.5 ml buffer. The filters were counted in 7 ml vials using Packard DM liquid scintillation fluid.
Data analysis. Data from saturation experiments were subjected to a Scatchard analysis, and linear regression was performed to yield the equilibrium dissociation constant (Kd) and maximum receptor concentration (Bmax). […] Data from competition experiments were analyzed and IC50 values determined from Hill plots of the binding data.

rat NPC1L1 = rat NPC1L1 (Rattus norvegicus, UniProt Q6T3U3); experiment: Binding to membranes of HEK-293 cells expressing recombinant rat NPC1L1; set-up: expressed in transfected cells; host or cells: HEK-293 cells (ATCC), transient, pCR3.1; membranes; settings: 0.03% sodium taurocholate and 0.05% digitonin; 1.25 mg protein/ml, 100 nM 1
Method: (§2) Transient expression of NPC1L1. Plasmid pCR3.1 expressing rat NPC1L1 (Genbank AY437867) or human NPC1L1 (Genbank AY437865) were prepared using standard molecular biology protocols. HEK-293 cells (ATCC) were seeded at 10×10^6 cells per T-225 flask (Corning) in DMEM containing 10% fetal calf serum, 4.5 g/L D-glucose and L-glutamine, 18 hours prior to transfection. They were transiently transfected with 25 μg of DNA using Fugene transfection reagent (Roche Biochemical) at a ratio of 6:1 Fugene:DNA. Following transfection, the cells were incubated at 37° C. and 5% CO2 for 48 hours, and then harvested using PBS based cell dissociation buffer (Gibco), pelleted at 500×g, snap frozen on dry ice, and stored at −80° C.
(§3) Membrane preparation from HEK-293 cells. Membranes were prepared by resuspending the frozen cell pellets in ten volumes of 20 mM HEPES/Tris buffer at pH 7.40 containing 8% sucrose, and sonicating the suspensions with a probe sonicator on ice until most of the cells were lysed. To isolate the membranes, the sonicates were centrifuged at 1600×g for 10 min to remove cell debris, and then the supernatants were centrifuged at 125,000×g for 1 hour to recover the membranes. These membranes were resuspended in 20 mM HEPES/Tris buffer at pH 7.40 containing 160 mM NaCl and 5% glycerol, and stored at 10-20 mg/ml protein at −80° C.
as §1

human NPC1L1 = molecular target: T3, human NPC1L1 (Homo sapiens, UniProt Q9UHC9, G1187D/M616T/T1073A); experiment: Binding to membranes of HEK-293 cells expressing recombinant human NPC1L1; set-up: expressed in transfected cells; host or cells: HEK-293 cells (ATCC), transient, pCR3.1; membranes; settings: 0.03% sodium taurocholate and 0.05% digitonin; 1.25 mg protein/ml, 100 nM 1
T3 sequence (Q9UHC9 22-1332 isoform Q9UHC9-2 M616T/T1046A/G1160D limits assumed): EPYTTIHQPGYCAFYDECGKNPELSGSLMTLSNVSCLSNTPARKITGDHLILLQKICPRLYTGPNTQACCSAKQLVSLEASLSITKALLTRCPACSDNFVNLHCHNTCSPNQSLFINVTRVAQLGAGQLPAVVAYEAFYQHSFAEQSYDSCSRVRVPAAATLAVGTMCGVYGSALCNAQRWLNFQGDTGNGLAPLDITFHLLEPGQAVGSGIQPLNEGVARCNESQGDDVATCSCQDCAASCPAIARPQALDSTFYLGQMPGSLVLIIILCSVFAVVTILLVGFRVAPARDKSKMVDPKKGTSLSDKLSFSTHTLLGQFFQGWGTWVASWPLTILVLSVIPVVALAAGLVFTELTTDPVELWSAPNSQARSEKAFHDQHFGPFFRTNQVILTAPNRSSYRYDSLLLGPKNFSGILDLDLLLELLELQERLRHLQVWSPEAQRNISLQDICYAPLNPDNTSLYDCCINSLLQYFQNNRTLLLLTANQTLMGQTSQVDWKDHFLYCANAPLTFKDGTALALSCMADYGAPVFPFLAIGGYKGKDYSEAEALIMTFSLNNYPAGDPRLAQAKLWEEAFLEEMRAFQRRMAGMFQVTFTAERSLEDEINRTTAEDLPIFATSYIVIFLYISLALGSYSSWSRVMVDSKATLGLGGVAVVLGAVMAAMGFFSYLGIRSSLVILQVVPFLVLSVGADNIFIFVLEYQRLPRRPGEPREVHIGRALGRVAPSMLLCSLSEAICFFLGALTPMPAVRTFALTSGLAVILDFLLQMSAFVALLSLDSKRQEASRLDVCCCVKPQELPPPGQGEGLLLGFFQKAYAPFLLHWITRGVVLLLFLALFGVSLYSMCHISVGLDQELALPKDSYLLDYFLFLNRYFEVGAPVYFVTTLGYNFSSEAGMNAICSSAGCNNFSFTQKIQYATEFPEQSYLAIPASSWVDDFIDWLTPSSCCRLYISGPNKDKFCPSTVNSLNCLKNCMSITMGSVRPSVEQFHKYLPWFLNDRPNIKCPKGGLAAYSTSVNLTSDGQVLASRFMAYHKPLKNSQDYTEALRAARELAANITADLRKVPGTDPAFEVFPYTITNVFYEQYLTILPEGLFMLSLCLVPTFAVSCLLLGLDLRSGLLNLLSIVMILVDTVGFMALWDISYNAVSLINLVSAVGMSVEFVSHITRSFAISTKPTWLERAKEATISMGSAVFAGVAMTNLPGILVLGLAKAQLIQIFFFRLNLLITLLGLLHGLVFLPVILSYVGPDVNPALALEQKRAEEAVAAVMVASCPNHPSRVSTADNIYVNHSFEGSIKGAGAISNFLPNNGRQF
Method: as §2, §3, §1

A Ki ([1]; 0.03% sodium taurocholate and 0.05% digitonin, 1.25 mg protein/ml, 100 nM 1, read-out: Rat BBM Ki) of 280 nM, an IC50 ([1]; rat brush border membrane vesicles, read-out: RAT IC50 (nM), inhibition of ^3H-EZE-gluc binding) of 252 nM and a Ki [2] of 60 nM were found for `O=C(O)[C@H]1O[C@@H](Oc2ccc([C@@H]3[C@@H](CC[C@H](O)c4ccc(F)cc4)C(=O)N3c3ccc(F)cc3)c(O)c2)[C@H](O)[C@@H](O)[C@@H]1O` [Compound 7] in this work. It also gave a Ki (rat NPC1L1) of 360 nM and a Ki (human NPC1L1) of 210 nM.
